Data on 18 compounds can be found in patent publication US20260053932A1, “COMPOUNDS AND METHODS FOR THE TARGETED DEGRADATION OF ANDROGEN RECEPTOR AND ASSOCIATED METHODS OF USE” (Arvinas Operations, Inc., priority 2020, published 2026).

In the assay the test system is androgen receptor (AR) in LNCaP and/or VCaP cells. Put plainly: Androgen Receptor ELISA assay (AR degradation). It counts as cell-based. Conditions: LNCaP and/or VCaP cells; 5 hours incubation; media with R1881; read-out: DC50 Code* (degradation of AR ELISA). An outline of the steps:
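VCaP cells grown ≥3 days, then treated 5 h with compound in media containing 1 nM R1881 (10× stock). Cells lysed and AR quantified by sandwich ELISA (mouse AR detection Ab, HRP anti-mouse, TMB). DC50 and Dmax derived from AR degradation.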
A general note: ELISA stands for enzyme-linked immunosorbent assay.

Consider `COc1cc(O[C@H]2C[C@H](N(CC3CCN(c4ncc(C(=O)N[C@H]5CC[C@@H](Oc6cc(C)c(C#N)c(C)c6)C5)cn4)CC3)C(C)C)C2)cc2c1C(=O)N(C1CCC(=O)NC1=O)C2=O` (stereo partly drawn) [Compound 9, N-((1S,3R)-3-(4-cyano-3,5-dimethylphenoxy)cyclopentyl)-2-(4-((((1r,3S)-3-((2-(2,6-dioxopiperidin-3-yl)-7-methoxy-1,3-dioxoisoindolin-5-yl)oxy)cyclobutyl) (isopropyl)amino)methyl)piperidin-1-yl)pyrimidine-5-carboxamide], for which the DC50 (usually the midpoint of the concentration-degradation curve) was more than 100 nM. To `COc1cc(O[C@@H]2CC[C@@H](NC(=O)c3cnc(N4CCC(CN(C(C)C)[C@H]5C[C@H](Oc6ccc7c(c6)C(=O)N(C6CCC(=O)NC6=O)C7=O)C5)CC4)cn3)C2)ccc1C#N` (stereo partly drawn) [Compound 10, N-((1R,3R)-3-(4-cyano-3-methoxyphenoxy)cyclopentyl)-5-(4-((((1r,3R)-3-((2-(2,6-dioxopiperidin-3-yl)-1,3-dioxoisoindolin-5-yl)oxy)cyclobutyl) (isopropyl)amino)methyl)piperidin-1-yl)pyrazine-2-carboxamide] belongs more than 100 nM.

Take `COc1cc(O[C@@H]2CC[C@H](NC(=O)c3cnc(N4CCC(CN(C(C)C)[C@H]5C[C@H](Oc6ccc7c(c6)C(=O)N(C6CCC(=O)NC6=O)C7=O)C5)CC4)cn3)C2)ccc1C#N` (stereo partly drawn) [Compound 11, N-((1S,3R)-3-(4-cyano-3-methoxyphenoxy)cyclopentyl)-5-(4-((((1r,3S)-3-((2-(2,6-dioxopiperidin-3-yl)-1,3-dioxoisoindolin-5-yl)oxy)cyclobutyl) (isopropyl)amino)methyl)piperidin-1-yl)pyrazine-2-carboxamide]: the DC50 is more than 100 nM. With `N#Cc1ccc(O[C@H]2CC[C@H](NC(=O)c3cnc(N4CCC(CN(CC5COC5)[C@H]5C[C@H](Oc6ccc7c(c6)CN(C6CCC(=O)NC6=O)C7=O)C5)CC4)cn3)CC2)cc1Cl` (stereo partly drawn) [Compound 13, N-((1r,4r)-4-(3-chloro-4-cyanophenoxy)cyclohexyl)-5-(4-((((1r,3r)-3-((2-(2,6-dioxopiperidin-3-yl)-1-oxoisoindolin-5-yl)oxy)cyclobutyl) (oxetan-3-ylmethyl)amino)methyl)piperidin-1-yl)pyrazine-2-carboxamide], the half-maximal degradation concentration (DC50) was less than 1 nM. To `COc1cc(O[C@H]2C[C@H](N(CC3CCN(c4cnc(C(=O)N[C@H]5CC[C@H](Oc6ccc(C#N)c(Cl)c6)CC5)cn4)CC3)C(C)C)C2)cc2c1C(=O)N(C1CCC(=O)NC1=O)C2=O` (stereo partly drawn) [Compound 14, N-((1r,4r)-4-(3-chloro-4-cyanophenoxy)cyclohexyl)-5-(4-((((1r,3r)-3-((2-(2,6-dioxopiperidin-3-yl)-7-methoxy-1,3-dioxoisoindolin-5-yl)oxy)cyclobutyl) (isopropyl)amino)methyl)piperidin-1-yl)pyrazine-2-carboxamide] belongs less than 1 nM; to `N#Cc1ccc(O[C@H]2CC[C@H](NC(=O)c3cnc(N4CCC(CN(C5COC5)[C@H]5C[C@H](Oc6ccc7c(c6)C(=O)N(C6CCC(=O)NC6=O)C7)C5)CC4)cn3)CC2)cc1Cl` (stereo partly drawn) [Compound 15, N-((1r,4r)-4-(3-chloro-4-cyanophenoxy)cyclohexyl)-5-(4-((((1r,3r)-3-((2-(2,6-dioxopiperidin-3-yl)-3-oxoisoindolin-5-yl)oxy)cyclobutyl) (oxetan-3-yl)amino)methyl)piperidin-1-yl)pyrazine-2-carboxamide], less than 1 nM; to `COCCN(CC1CCN(c2cnc(C(=O)N[C@H]3CC[C@H](Oc4ccc(C#N)c(Cl)c4)CC3)cn2)CC1)[C@H]1C[C@H](Oc2ccc3c(c2)CN(C2CCC(=O)NC2=O)C3=O)C1` (stereo partly drawn) [Compound 16, N-((1r,4r)-4-(3-chloro-4-cyanophenoxy)cyclohexyl)-5-(4-((((1r,3r)-3-((2-(2,6-dioxopiperidin-3-yl)-1-oxoisoindolin-5-yl)oxy)cyclobutyl)(2-methoxyethyl)amino)methyl)piperidin-1-yl)pyrazine-2-carboxamide], less than 1 nM. To `COc1cc(O[C@H]2C[C@H](N(CC3CCN(c4cnc(C(=O)N[C@H]5CC[C@H](Oc6cc(C)c(C#N)c(C)c6)CC5)cn4)CC3)C(C)C)C2)cc2c1C(=O)N(C1CCC(=O)NC1=O)C2=O` (stereo partly drawn) [Compound 17, N-((1r,4r)-4-(4-cyano-3,5-dimethylphenoxy)cyclohexyl)-5-(4-((((1r,3r)-3-((2-(2,6-dioxopiperidin-3-yl)-7-methoxy-1,3-dioxoisoindolin-5-yl)oxy)cyclobutyl) (isopropyl)amino)methyl)piperidin-1-yl)pyrazine-2-carboxamide] belongs less than 1 nM; to `COc1cc(O[C@H]2CC[C@H](NC(=O)c3cnc(N4CCC(CN(C(C)C)[C@H]5CC[C@H](Oc6ccc7c(c6)CN(C6CCC(=O)NC6=O)C7=O)CC5)CC4)cn3)CC2)ccc1C#N` (stereo partly drawn) [Compound 19, N-((1r,4r)-4-(4-cyano-3-methoxyphenoxy)cyclohexyl)-5-(4-((((1r,4r)-4-((2-(2,6-dioxopiperidin-3-yl)-1-oxoisoindolin-5-yl)oxy)cyclohexyl) (isopropyl)amino)methyl)piperidin-1-yl)pyrazine-2-carboxamide], less than 1 nM; to `COc1cc(O[C@H]2CC[C@H](NC(=O)c3cnc(N4CC(CN(C(C)C)[C@H]5C[C@H](Oc6ccc7c(c6)C(=O)N(C6CCC(=O)NC6=O)C7=O)C5)C4)cn3)CC2)ccc1C#N` (stereo partly drawn) [Compound 20, N-((1r,4r)-4-(4-cyano-3-methoxyphenoxy)cyclohexyl)-5-(3-((((1r,3r)-3-((2-(2,6-dioxopiperidin-3-yl)-1,3-dioxoisoindolin-5-yl)oxy)cyclobutyl) (isopropyl)amino)methyl)azetidin-1-yl)pyrazine-2-carboxamide], less than 1 nM. Consider `N#Cc1ccc(O[C@H]2CC[C@H](NC(=O)c3cnc(N4CCC(CN(C5COC5)[C@H]5C[C@H](Oc6ccc7c(c6)CN(C6CCC(=O)NC6=O)C7=O)C5)CC4)cn3)CC2)cc1Cl` (stereo partly drawn) [Compound 21, N-((1r,4r)-4-(3-chloro-4-cyanophenoxy)cyclohexyl)-5-(4-((((1r,3r)-3-((2-(2,6-dioxopiperidin-3-yl)-1-oxoisoindolin-5-yl)oxy)cyclobutyl) (oxetan-3-yl)amino)methyl)piperidin-1-yl)pyrazine-2-carboxamide], for which the half-maximal degradation concentration (DC50) is less than 1 nM. As for `COc1cc(O[C@H]2CC[C@H](NC(=O)c3cnc(N4CC(CN(C(C)C)[C@H]5CC[C@H](Oc6ccc7c(c6)C(=O)N(C6CCC(=O)NC6=O)C7=O)CC5)C4)cn3)CC2)ccc1C#N` (stereo partly drawn) [Compound 22, N-((1r,4r)-4-(4-cyano-3-methoxyphenoxy)cyclohexyl)-5-(3-((((1r,4r)-4-((2-(2,6-dioxopiperidin-3-yl)-1,3-dioxoisoindolin-5-yl)oxy)cyclohexyl) (isopropyl)amino)methyl)azetidin-1-yl)pyrazine-2-carboxamide], the DC50 was less than 1 nM. To `COc1cc(O[C@H]2C[C@H](N(CC3CCN(c4cnc(C(=O)N[C@H]5CC[C@H](Oc6cc(C)c(C#N)c(C)c6)CC5)cn4)CC3)C(C)=O)C2)cc2c1C(=O)N(C1CCC(=O)NC1=O)C2=O` (stereo partly drawn) [Compound 23, N-((1r,4r)-4-(4-cyano-3,5-dimethylphenoxy)cyclohexyl)-5-(4-((N-((1r,3r)-3-((2-(2,6-dioxopiperidin-3-yl)-7-methoxy-1,3-dioxoisoindolin-5-yl)oxy)cyclobutyl)acetamido)methyl)piperidin-1-yl)pyrazine-2-carboxamide] belongs less than 1 nM; to `COCCN(CC1CCN(c2cnc(C(=O)N[C@H]3CC[C@H](Oc4ccc(C#N)c(Cl)c4)CC3)cn2)CC1)[C@H]1C[C@H](Oc2ccc3c(c2)C(=O)N(C2CCC(=O)NC2=O)C3)C1` (stereo partly drawn) [Compound 24, N-((1r,4r)-4-(3-chloro-4-cyanophenoxy)cyclohexyl)-5-(4-((((1r,3r)-3-((2-(2,6-dioxopiperidin-3-yl)-3-oxoisoindolin-5-yl)oxy)cyclobutyl)(2-methoxyethyl)amino)methyl)piperidin-1-yl)pyrazine-2-carboxamide], less than 1 nM. Take `Cc1cc(O[C@H]2CC[C@H](NC(=O)c3cnc(N4CCC(CN(C(C)C)[C@H]5C[C@H](Oc6ccc7c(c6)C(=O)N(C6CCC(=O)NC6=O)C7=O)C5)CC4)cn3)CC2)cc(C)c1C#N` (stereo partly drawn) [Compound 25, N-((1r,4r)-4-(4-cyano-3,5-dimethylphenoxy)cyclohexyl)-5-(4-((((1r,3r)-3-((2-(2,6-dioxopiperidin-3-yl)-1,3-dioxoisoindolin-5-yl)oxy)cyclobutyl) (isopropyl)amino)methyl)piperidin-1-yl)pyrazine-2-carboxamide]: the 50% degradation concentration (DC50) was less than 1 nM.

In the case of `CC(C)N(CC1CCN(c2ncc(C(=O)N[C@H]3C(C)(C)[C@H](Oc4ccc(C#N)c(Cl)c4)C3(C)C)cn2)CC1)[C@H]1CC[C@H](Oc2ccc3c(c2)C(=O)N(C2CCC(=O)NC2=O)C3=O)CC1` (stereo partly drawn) [Compound 26, N-((1r,3r)-3-(3-chloro-4-cyanophenoxy)-2,2,4,4-tetramethylcyclobutyl)-2-(4-((((1r,4r)-4-((2-(2,6-dioxopiperidin-3-yl)-1,3-dioxoisoindolin-5-yl)oxy)cyclohexyl) (isopropyl)amino)methyl)piperidin-1-yl)pyrimidine-5-carboxamide], the DC50 was less than 1 nM. To `COc1cc(O[C@H]2CC[C@H](NC(=O)c3cnc(N4CC5(CC(CN(C(C)C)[C@H]6C[C@H](Oc7ccc8c(c7)CN(C7CCC(=O)NC7=O)C8=O)C6)C5)C4)cn3)CC2)ccc1C#N` (stereo partly drawn) [Compound 27, N-((1r,4r)-4-(4-cyano-3-methoxyphenoxy)cyclohexyl)-5-(6-((((1r,3r)-3-((2-(2,6-dioxopiperidin-3-yl)-1-oxoisoindolin-5-yl)oxy)cyclobutyl) (isopropyl)amino)methyl)-2-azaspiro[3.3]heptan-2-yl)pyrazine-2-carboxamide] belongs less than 1 nM; to `CCN(CC1CCN(c2cnc(C(=O)N[C@H]3CC[C@H](Oc4ccc(C#N)c(Cl)c4)CC3)cn2)CC1)[C@H]1C[C@H](Oc2ccc3c(c2)C(=O)N(C2CCC(=O)NC2=O)C3=O)C1` (stereo partly drawn) [Compound 28, N-((1r,4r)-4-(3-chloro-4-cyanophenoxy)cyclohexyl)-5-(4-((((1r,3r)-3-((2-(2,6-dioxopiperidin-3-yl)-1,3-dioxoisoindolin-5-yl)oxy)cyclobutyl)(ethyl)amino)methyl)piperidin-1-yl)pyrazine-2-carboxamide], less than 1 nM.
